Publication PMC9243584, “Population Pharmacokinetics of Colistin Sulfate in Critically Ill Patients: Exposure and Clinical Efficacy” (Frontiers in Pharmacology, 2022)
Structures can show the parent of a compound that is named as a salt. Where two headings read alike, the source gives them in different places. Positions of bridges follow the written chain, without caps; N, C: chain ends. Non-standard residues stand in square brackets, D forms with d. Residues, ends and D or L forms follow the SMILES beside them. *: point of attachment. X1 = CC[C@H](C)CCCCC(=O)*; Dab = NCC[C@H](N)C(=O)O

Columns and labels:
[1] = ref Han et al., 2022; cited from earlier work
From the text: It should be noted that the currently used colistin sulfate in China was reapproved for clinical use by the Chinese National Medical Products Administration (NPMA) in 2018. Thus, modern pharmacological data including the clinical efficacy and side effects have not been reported. […] The clinical efficacy of colistin sulfate in the current study was similar to the efficacy of polymyxin B reported by [Lu et al. (2021]), who performed a retrospec ... || Nephrotoxicity is the main toxicity of concern with the treatment of polymyxins. However, it is amazing that no patient developed colistin sulfate-related nephrotoxicity in our study. […] Considering that polymyxin B and colistin have very similar molecular structures and PK characteristics, it is reasonable to conclude that the safety threshold of nephrotoxicity of colistin sulfate approaches that of polymyxin B. In the current study, most patient ...

[2] = parameters: method as in 2 sources, one per row (each row's own in cited_ref): ref Yu et al., 2021 ||| ref Wang et al., 2020; conditions: cited from earlier work
[3] = tested on: CRO; conditions: retrospective study, Chinese patients with CRO infections, median daily dose 1.72 mg/kg; ref Lu et al. (2021); cited from earlier work
From the text: (§1) It should be noted that the currently used colistin sulfate in China was reapproved for clinical use by the Chinese National Medical Products Administration (NPMA) in 2018. Thus, modern pharmacological data including the clinical efficacy and side effects have not been reported. […] The clinical efficacy of colistin sulfate in the current study was similar to the efficacy of polymyxin B reported by [Lu et al. (2021]), who performed a retrospec ...

[4] = critically ill patients, ref Cheah et al., 2015, cited from earlier work
[5] = Population pharmacokinetic modeling (NONMEM) of intravenous colistin sulfate from plasma concentrations in critically ill patients; format: in vivo, human
From the text: This retrospective, observational study was designed in accordance with the Declaration of Helsinki and was approved by the Ethical Committees of the First Affiliated Hospital of Wenzhou Medical University, China ([2022]036). Adult patients receiving colistin sulfate for confirmed multi-resistant Gram-negative bacterial infections from January 2020 to December 2021 at the First Affiliated Hospital of Wenzhou Medical University were selected. The inclusion criteria were as follows: a) ≥18 years of age; b) receiving colistin sulfate (Shanghai New Asia Pharmaceuticals, Shanghai, China) for at least 3 days; and c) at least one plasma concentration of colistin was collected.
The decision to administer colistin sulfate and its dosing regimen (dose amount, dosing interval, ways of administration, and treatment duration) was made by the attending physician. A loading dose of 1 million IU and a daily dose of 1.5 million IU divided into 2–3 times (maintenance dose) administered using an intravenous drip was recommended by the label sheet of colistin sulfate. In addition, for patients with pulmonary infection, inhalation of colistin sulfate (250,000 IU q12 h) was combinedly used; for patients with intracranial infection, colistin sulfate (50,000 IU q24 h) administered by the intraventricular/intrathecal (IVT/IT) route was combinedly used.
Plasma samples of colistin sulfate were collected after reaching the steady-state (attained after at least six doses). Dates and exact time of colistin sulfate administration and plasma sample collection were able to be indexed from the medical records. Plasma samples were separated by centrifugation for 5 min at 15,000 rpm immediately after sampling. The quantification of plasma concentration of colistin sulfate was performed using a validated high-performance liquid chromatography-tandem mass spectrometry assay ([Gobin et al., 2010]). The calibration ranges for colistin were 0.1–20 μg/ml. The method validations including calibration curve, selectivity, accuracy, precision, matrix effect, recovery, and stability met the requirement of FDA principles.
PopPK analysis was performed using the nonlinear mixed-effects modeling program NONMEM (version 7.4, Icon Development Solutions, Ellicott City, MD, USA) and Pirana (version 2.9.7). R (version 3.6.0) and Xpose (version 4.3.2) software packages were applied to generate diagnostic plots.
One- and two-compartment structural models with first-order elimination were explored for the concentration–time profiles of colistin sulfate. Between-subject variability (BSV) was assessed using an exponential function. Residual variability was assessed using additive, proportional, or combined (additive plus proportional) error models. The base model was selected based on the visual inspection of diagnostic plots and goodness-of-fit criteria, including precision and plausibility of parameter estimation and improvement of the objective function value (OFV).
Relationships between individual empirical Bayesian estimates of PK parameters and patient covariates were examined visually. Covariates were included using a stepwise forward selection process until no further decrease in OFV was observed. All of the significant covariates were then incorporated into the basic model to construct a full model. The included covariates were further assessed using backward elimination. The additional criterion for retaining the covariate in the final model was the decrease in the unexplained BSV and increase in PK parameter estimate precision.
Goodness-of-fit plots, nonparametric bootstrap, and visual predictive check were performed to evaluate the final model and parameter estimates. A nonparametric bootstrap procedure was conducted to assess the performance and stability of the final model. Random sampling with replacement was utilized to generate 1,000 replicate datasets using the individual as the sampling unit. […]

[6] = Acute kidney injury (RIFLE criteria) and colistin sulfate-related nephrotoxicity (Naranjo criteria); format: in vivo, human; conditions: 42 patients, not considered colistin's nephrotoxicity by Naranjo criteria
Experimental: Acute kidney injury (AKI) during the treatment of colistin sulfate was assessed using RIFLE criteria. AKI was defined as a 1.5-fold or more increase in serum creatinine and/or a decrease in the glomerular filtration rate (GFR) of 25% or more ([Han et al., 2022]). The definition of nephrotoxicity caused by colistin sulfate was further confirmed using the Naranjo criteria.

[7] = tested on: isolates with lower MIC values (≤2 μg/ml); conditions: isolates with MIC ≤2 μg/ml for both compounds; ref Sader et al., 2015; cited from earlier work
From the text: as §1

Molecule | Cmin to prevent polymyxin B-related nephrotoxicity [1] | median CL ([2]; Chinese adult patients, ref Wang et al., 2020) [L/h] | CL ([2]; mean ± SD, adult critically ill patients, 112 concentrations from 32 patients, ref Yu et al., 2021, SD) [L/h] | V ([2]; one-compartment model, adult critically ill patients, ref Yu et al., 2021) [L] | patients who achieved clinical success [3] [%] | plasma unbound fraction [4] | plasma unbound fraction ([4]; listed as colistin) | CrCL on CL (θ1) ([5]; final model, covariate coefficient in CL = 0.994 + 0.525×CrCL/66.47) | TVV (typical value of volume of distribution) ([5]; final model, one-compartment) [L] | TVCL (typical value of clearance) ([5]; final model, one-compartment, CL = 0.994 + 0.525×CrCL/66.47) [L/h] | clearance ([5]; human, plasma, iv, base model (Table S1), read-out: TVCL (converted)) [mL/min] | Vd ([5]; human, plasma, iv, base model (Table S1), read-out: TVV) [L] | Vd ([5]; human, plasma, iv, final model, one-compartment, read-out: TVV (typical value of volume of distribution)) [L] | clearance ([5]; human, plasma, iv, mean ± SD across all 42 patients, SD, read-out: CL, individual empirical Bayesian estimate (converted)) [mL/min] | AUC(0-t) ([5]; human, plasma, iv, mean ± SD, MAP Bayesian estimate per patient with the final PK model, SD, read-out: AUC (AUC0-24 at steady state, AUC0-24,ss)) [ng·h/mL] | patients who developed AKI during the treatment [6] | potency compared with polymyxin B [7]
polymyxin B sulfate | below 3.13 mg/L | 1.78 | 1.75 | 20.5 | 57.6 | – | – | – | – | – | – | – | – | – | – | – | –
CC[C@H](C)CCCCC(=O)N[C@@H](CCN)C(=O)N[C@H](C(=O)N[C@@H](CCN)C(=O)N[C@H]1CCNC(=O)[C@H]([C@@H](C)O)NC(=O)[C@H](CCN)NC(=O)[C@H](CCN)NC(=O)[C@H](CC(C)C)NC(=O)[C@@H](CC(C)C)NC(=O)[C@H](CCN)NC1=O)[C@@H](C)O [colistin sulfate] (X1-[Dab]T[Dab][Dab][Dab][dL]L[Dab][Dab]T; lactam 4-C) | – | – | – | – | – | 0.5 | about 0.5 | 0.525 | 20.7 | 0.994 | 27.2 | 20.6 | 20.7 | 29 | 39400 ± 14500 | two | slightly greater potency than polymyxin B
